Where a SMILES comes first, the peptide text is derived from it. Where no end group is shown, it is not given here. [ ]: non-standard residue; d: D form. Ac5c = NC1(C(=O)O)CCCC1; Aib = CC(C)(N)C(=O)O
Assays:
[1] = Rat plasma half-life assay; type: in vitro ADME; details: rat plasma, 37° C., LC-MS; read-out: Rat Plasma T½ (converted)
[2] = In vivo insulin secretion in normal rats; parameters: species or system Sprague Dawley rats; details: fasted male rats, iv compound with glucose 1 g/kg, samples to 20 minutes
Method: D. Determination of In Vivo Insulin Secretion in Normal Rats
Male Sprague Dawley rats with a body weight of approximately 275-300 g were used as experimental subjects. The day prior to the treatment, right atrial cannulae were implanted via the jugular vein under chlorohydrate. Each cannula was filled with 100 u/ml heparin saline and tied. The rats were fasted for approximately 18 hours prior to dosing with the compound or the vehicle (saline/0.25% BSA). The day of the experiment, aliquots of compound were thawed, brought to room temperature and vortexed thoroughly. A careful check was made for any sign of compound coming out of solution. 10 minutes prior to compound/glucose injection, a 500 μl blood sample was withdrawn and replaced with an equal volume of heparinized saline (10 u/ml). At time 0, a 500 μl blood sample was withdrawn through the cannula. Next, either the vehicle or the appropriate dose of the compound was injected into the cannula and pushed in with the glucose (1 g/kg) or vehicle solution. Finally, 500 μl of volume of heparinized saline (10 u/ml) was used to push in the remaining glucose through the cannula. Additional 500 μl blood samples were withdrawn at 2.5, 5, 10, and 20-minute post-glucose dosing; each immediately followed by a bolus, iv injection of 500 μl heparinized saline (10 u/ml) through the cannula. The plasma was collected from the blood samples by centrifugation, and stored at −20° C. until assay for insulin content. Numerical values of the total insulin secretion, which show the in vivo effects of the compounds of Examples 105, 106, 118, and 119, are summarized in Table 3.

[3] = Human plasma half-life assay; type: in vitro ADME; details: human plasma, 37° C., LC-MS; read-out: Human Plasma T½ (converted)
[4] = biological target: T1, human recombinant GIP receptor (Homo sapiens, UniProt P48546); test: In vitro hGIP receptor binding assay ([125I]GIP displacement, CHO-K1 membranes)
T1 construct: expressed in transfected cells; host or cells: CHO-K1 clonal cells (membranes)
T1 sequence (P48546 22-466): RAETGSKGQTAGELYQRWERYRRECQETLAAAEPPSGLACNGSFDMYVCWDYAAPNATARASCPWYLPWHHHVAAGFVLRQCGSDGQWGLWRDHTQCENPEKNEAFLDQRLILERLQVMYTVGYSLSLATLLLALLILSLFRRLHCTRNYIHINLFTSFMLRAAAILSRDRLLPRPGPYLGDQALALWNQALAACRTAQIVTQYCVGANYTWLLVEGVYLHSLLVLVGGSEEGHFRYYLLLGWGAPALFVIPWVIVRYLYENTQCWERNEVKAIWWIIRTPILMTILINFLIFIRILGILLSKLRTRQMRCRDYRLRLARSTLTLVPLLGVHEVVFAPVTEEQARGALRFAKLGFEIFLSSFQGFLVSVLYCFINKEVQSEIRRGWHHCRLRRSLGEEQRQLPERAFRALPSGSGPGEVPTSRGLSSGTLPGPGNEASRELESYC
Description: A. In Vitro hGIP Receptor Binding Assay

Molecule | half-life at 0.1 mg/ml [1] [h] | AUC (total insulin secretion) [2] | half-life at 0.1 mg/ml [3] [h] | Ki [4] [nM]
CCCC[C@H](NC(=O)[C@H](C)NC(=O)[C@@H](NC(=O)C1(NC(=O)[C@H](Cc2ccc(O)cc2)NC(=O)[C@H](CC(=O)O)NC(=O)[C@H](CO)NC(=O)[C@@H](NC(=O)[C@H](Cc2ccccc2)NC(=O)[C@@H](NC(=O)CNC(=O)[C@H](CCC(=O)O)NC(=O)[C@@H](C)NC(=O)[C@@H](N)Cc2ccc(O)cc2)[C@@H](C)O)[C@@H](C)CC)CCCC1)[C@@H](C)CC)C(=O)N[C@@H](CC(=O)O)C(=O)N[C@@H](CCCCN)C(=O)N[C@H](C(=O)N[C@@H](Cc1c[nH]cn1)C(=O)N[C@@H](CCC(N)=O)C(=O)N[C@@H](CCC(N)=O)C(=O)N[C@@H](CC(=O)O)C(=O)N[C@@H](Cc1ccccc1)C(=O)N[C@H](C(=O)N[C@@H](CC(N)=O)C(=O)N[C@@H](Cc1c[nH]c2ccccc12)C(=O)N[C@@H](CC(C)C)C(=O)N[C@@H](CC(C)C)C(=O)N[C@@H](C)C(=O)N[C@@H](CCC(N)=O)C(=O)N[C@@H](CCCCN)C(=O)NCC(=O)N[C@@H](CCCCN)C(=O)N[C@@H](CCCCN)C(=O)N[C@@H](CC(N)=O)C(=O)N[C@@H](CC(=O)O)C(=O)N[C@@H](Cc1c[nH]c2ccccc12)C(=O)N[C@@H](CCCCN)C(=O)N[C@@H](Cc1c[nH]cn1)C(=O)N[C@@H](CC(N)=O)C(=O)N[C@H](C(=O)N[C@H](C(=O)N[C@@H](CCC(N)=O)C(=O)N[C@@H](Cc1c[nH]cn1)C(=O)O)[C@@H](C)O)[C@@H](C)CC)C(C)C)[C@@H](C)CC [Example 119, (D-Ala^2, A5c^11, Nle^14, His^43)hGIP(1-43)-OH] | 15.4 | 167.48 | 35.7 | –
CC[C@H](C)[C@H](NC(=O)[C@H](CCCCN)NC(=O)[C@H](CC(=O)O)NC(=O)[C@H](CCSC)NC(=O)[C@H](C)NC(=O)[C@@H](NC(=O)C1(NC(=O)[C@H](Cc2ccc(O)cc2)NC(=O)[C@H](CC(=O)O)NC(=O)[C@H](CO)NC(=O)[C@@H](NC(=O)[C@H](Cc2ccccc2)NC(=O)[C@@H](NC(=O)CNC(=O)[C@H](CCC(=O)O)NC(=O)[C@@H](C)NC(=O)[C@@H](N)Cc2ccc(O)cc2)[C@@H](C)O)[C@@H](C)CC)CCCC1)[C@@H](C)CC)C(=O)N[C@@H](Cc1c[nH]cn1)C(=O)N[C@@H](CCC(N)=O)C(=O)N[C@@H](CCC(N)=O)C(=O)N[C@@H](CC(=O)O)C(=O)N[C@@H](Cc1ccccc1)C(=O)N[C@H](C(=O)N[C@@H](CC(N)=O)C(=O)N[C@@H](Cc1c[nH]c2ccccc12)C(=O)N[C@@H](CC(C)C)C(=O)N[C@@H](CC(C)C)C(=O)N[C@@H](C)C(=O)N[C@@H](CCC(N)=O)C(=O)N[C@@H](CCCCN)C(=O)NCC(=O)N[C@@H](CCCCN)C(=O)N[C@@H](CCCCN)C(=O)N[C@@H](CC(N)=O)C(=O)N[C@@H](CC(=O)O)C(=O)N[C@@H](Cc1c[nH]c2ccccc12)C(=O)N[C@@H](CCCCN)C(=O)N[C@@H](Cc1c[nH]cn1)C(=O)N[C@@H](CC(N)=O)C(=O)N[C@H](C(=O)N[C@H](C(=O)N[C@@H](CCC(N)=O)C(=O)N[C@@H](Cc1c[nH]cn1)C(=O)O)[C@@H](C)O)[C@@H](C)CC)C(C)C [Example 105, (D-Ala^2, A5c^11, His^43)hGIP(1-43)-OH] | 6.9 | 114.70 | 19.1 | –
Y[dA]EGTFISDY[Ac5c]IAMDKIHQQDFVNWLLAQKGKKNDWKHNI[Ac5c]Q-OH [Example 106, (D-Ala^2, A5c^11, 41)hGIP(1-42)-OH] | 9.2 | 161.73 | > 55 | –
CCCC[C@H](NC(=O)[C@H](C)NC(=O)[C@@H](NC(=O)C1(NC(=O)[C@H](Cc2ccc(O)cc2)NC(=O)[C@H](CC(=O)O)NC(=O)[C@H](CO)NC(=O)[C@@H](NC(=O)[C@H](Cc2ccccc2)NC(=O)[C@@H](NC(=O)CNC(=O)[C@H](CCC(=O)O)NC(=O)CNC(=O)[C@@H](N)Cc2ccc(O)cc2)[C@@H](C)O)[C@@H](C)CC)CCCC1)[C@@H](C)CC)C(=O)N[C@@H](CC(=O)O)C(=O)N[C@@H](CCCCN)C(=O)N[C@H](C(=O)N[C@@H](Cc1c[nH]cn1)C(=O)N[C@@H](CCC(N)=O)C(=O)N[C@@H](CCC(N)=O)C(=O)N[C@@H](CC(=O)O)C(=O)N[C@@H](Cc1ccccc1)C(=O)N[C@H](C(=O)N[C@@H](CC(N)=O)C(=O)N[C@@H](Cc1c[nH]c2ccccc12)C(=O)N[C@@H](CC(C)C)C(=O)N[C@@H](CC(C)C)C(=O)N[C@@H](C)C(=O)N[C@@H](CCC(N)=O)C(=O)N[C@@H](CCCCN)C(=O)NCC(=O)N[C@@H](CCCCN)C(=O)N[C@@H](CCCCN)C(=O)N[C@@H](CC(N)=O)C(=O)N[C@@H](CC(=O)O)C(=O)N[C@@H](Cc1c[nH]c2ccccc12)C(=O)N[C@@H](CCCCN)C(=O)N[C@@H](Cc1c[nH]cn1)C(=O)N[C@@H](CC(N)=O)C(=O)N[C@H](C(=O)N[C@H](C(=O)N[C@@H](CCC(N)=O)C(=O)N[C@@H](Cc1c[nH]cn1)C(=O)O)[C@@H](C)O)[C@@H](C)CC)C(C)C)[C@@H](C)CC [Example 118, (Gly^2, A5c^11, Nle^14, His^43)hGIP(1-43)-OH] | 11.2 | 88.22 | > 42 | 0.87
CC[C@H](C)[C@H](NC(=O)[C@H](CCCCN)NC(=O)[C@H](CC(=O)O)NC(=O)[C@H](CCSC)NC(=O)[C@H](C)NC(=O)[C@@H](NC(=O)C1(NC(=O)[C@H](Cc2ccc(O)cc2)NC(=O)[C@H](CC(=O)O)NC(=O)[C@H](CO)NC(=O)[C@@H](NC(=O)[C@H](Cc2ccccc2)NC(=O)[C@@H](NC(=O)CNC(=O)[C@H](CCC(=O)O)NC(=O)C(C)(C)NC(=O)[C@@H](N)Cc2ccc(O)cc2)[C@@H](C)O)[C@@H](C)CC)CCCC1)[C@@H](C)CC)C(=O)N[C@@H](Cc1c[nH]cn1)C(=O)N[C@@H](CCC(N)=O)C(=O)N[C@@H](CCC(N)=O)C(=O)N[C@@H](CC(=O)O)C(=O)N[C@@H](Cc1ccccc1)C(=O)N[C@H](C(=O)N[C@@H](CC(N)=O)C(=O)N[C@@H](Cc1c[nH]c2ccccc12)C(=O)N[C@@H](CC(C)C)C(=O)N[C@@H](CC(C)C)C(=O)N[C@@H](C)C(=O)N[C@@H](CCC(N)=O)C(=O)N[C@@H](CCCCN)C(N)=O)C(C)C [Example 46, (Aib^2, A5c^11)hGIP(1-30)-NH2] (H-Y[Aib]EGTFISDY[Ac5c]IAMDKIHQQDFVNWLLAQK-NH2; N-terminus assumed) | > 54 | – | 12.2 | 0.09
